# Where a SMILES comes first, the peptide text is derived from it. [ ]: non-standard residue; d: D form. Dip = N[C@H](C(=O)O)C(c1ccccc1)c1ccccc1; 2Nal = N[C@@H](Cc1ccc2ccccc2c1)C(=O)O; dGla = N[C@H](CC(C(=O)O)C(=O)O)C(=O)O; Cha = N[C@@H](CC1CCCCC1)C(=O)O
# Tests used:
# NS3 [1] = biological target: T1, NS3 (Hepatitis C virus, UniProt A3EZJ3); assay: Inhibitory activity against hepatitis C virus (HCV) NS3 protease (full-length); set-up: species or system Hepacivirus hominis
# NS3 [2] = biological target: T1, NS3; assay: Inhibitory activity against hepatitis C virus (HCV) NS3 protease (isolated domain); set-up: species or system Hepacivirus hominis
# NS3 (Hepatitis C virus) = NS3 (Hepatitis C virus) (UniProt A3EZJ3); assay: Inhibitory activity against hepatitis C virus (HCV) NS3 protease (isolated domain) at a concentration of 6 uM; details: Hepacivirus hominis
# Chain of NS3 (Hepatitis C virus) (A3EZJ3 as listed by the source): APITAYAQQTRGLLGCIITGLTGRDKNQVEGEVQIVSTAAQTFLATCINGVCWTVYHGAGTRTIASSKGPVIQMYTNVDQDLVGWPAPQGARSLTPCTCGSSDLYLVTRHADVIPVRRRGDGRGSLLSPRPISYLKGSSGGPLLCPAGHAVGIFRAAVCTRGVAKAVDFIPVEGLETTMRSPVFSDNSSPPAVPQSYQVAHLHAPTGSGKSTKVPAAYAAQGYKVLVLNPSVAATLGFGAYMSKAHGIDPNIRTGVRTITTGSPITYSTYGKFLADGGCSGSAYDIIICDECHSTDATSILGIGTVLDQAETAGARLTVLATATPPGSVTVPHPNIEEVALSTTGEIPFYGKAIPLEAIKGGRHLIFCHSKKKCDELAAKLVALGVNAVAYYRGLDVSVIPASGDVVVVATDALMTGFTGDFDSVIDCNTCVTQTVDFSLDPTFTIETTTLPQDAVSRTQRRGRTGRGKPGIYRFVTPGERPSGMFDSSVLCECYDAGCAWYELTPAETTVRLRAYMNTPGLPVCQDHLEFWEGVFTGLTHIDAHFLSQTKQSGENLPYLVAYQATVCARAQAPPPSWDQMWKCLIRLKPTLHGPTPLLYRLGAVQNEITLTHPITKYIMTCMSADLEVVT
# T1 sequence (A3EZJ3 whole entry, the tested form may be a part): as the sequence (A3EZJ3 as listed by the source) above
Compound,Ki (NS3 [1]),Ki (NS3 [2]),inhibition (NS3 (Hepatitis C virus))
CC[C@H](C)[C@H](NC(=O)[C@H](CC(C)C)NC(=O)[C@@H](CC(C(=O)O)C(=O)O)NC(=O)[C@H](CC(=O)O)NC(C)=O)C(=O)N[C@@H](CC1CCCCC1)C(=O)N[C@@H](CS)C(=O)O (Ac-D[dGla]LI[Cha]C-OH),12 nM,0.75 nM,–
CSCC[C@H](NC(=O)[C@H](CCC(=O)O)NC(=O)[C@H](CC(=O)O)NC(C)=O)C(=O)N[C@@H](CCC(=O)O)C(=O)N[C@@H](Cc1ccc2ccccc2c1)C(=O)N[C@@H](CS)C(=O)O (Ac-DEME[2Nal]C-OH),1040 nM,180 nM,–
CC(C)C[C@H](NC(=O)[C@@H](CCC(=O)O)NC(=O)[C@@H](N)CC(=O)O)C(=O)N[C@@H](CCC(=O)O)C(=O)N[C@@H](CC1CCCCC1)C(=O)N[C@@H](CS)C(=O)O,1540 nM,–,–
CC(=O)N[C@H](C(=O)N[C@@H](CCC(=O)O)C(=O)N[C@@H](CC1CCCCC1)C(=O)N[C@@H](CS)C(=O)O)C(c1ccccc1)c1ccccc1 (Ac-[Dip]E[Cha]C-OH),1100 nM,15000 nM,–
CC(=O)N[C@@H](CCC(=O)O)C(=O)N[C@@H](CC1CCCCC1)C(=O)N[C@@H](CS)C(=O)O (Ac-Glu-[Cha]-Cys-OH),4100 nM,230000 nM,–
CC[C@H](C)[C@H](NC(=O)[C@@H](NC(=O)[C@H](CCC(=O)O)NC(C)=O)C(c1ccccc1)c1ccccc1)C(=O)N[C@@H](CC1CCCCC1)C(=O)N[C@@H](CS)C(=O)O (Ac-E[Dip]I[Cha]C-OH),1000 nM,1200 nM,–
CC(=O)N[C@@H](CC(=O)O)C(=O)N[C@@H](CCC(=O)O)C(=O)N[C@H](C(=O)N[C@@H](CCC(=O)O)C(=O)N[C@@H](CC1CCCCC1)C(=O)N[C@@H](CS)C(=O)O)C(c1ccccc1)c1ccccc1 (Ac-DE[Dip]E[Cha]C-OH),41 nM,25 nM,–
CC(=O)N[C@@H](CC(=O)O)C(=O)N[C@H](CCC(=O)O)C(=O)N[C@@H](CC(C)C)C(=O)N[C@@H](CCC(=O)O)C(=O)N[C@@H](CC1CCCCC1)C(=O)N[C@@H](CS)C(=O)O,180 nM,23 nM,–
CC(=O)N[C@@H](CC(=O)O)C(=O)N[C@@H](CCC(=O)O)C(=O)N[C@@H](CC(C)C)C(=O)N[C@@H](CCC(=O)O)C(=O)N[C@@H](CC1CCCCC1)C(=O)N[C@@H](CS)C(=O)O,490 nM,60 nM,–
CC[C@H](C)[C@H](NC(=O)[C@@H](NC(C)=O)C(c1ccccc1)c1ccccc1)C(=O)N[C@@H](CC1CCCCC1)C(=O)N[C@@H](CS)C(=O)O (Ac-[Dip]I[Cha]C-OH),2100 nM,50000 nM,–
Ac-DEMEEC-OH,360 nM,500 nM,–
CC(=O)N[C@@H](CC(=O)O)C(=O)N[C@@H](CCC(=O)O)C(=O)N[C@H](C(=O)N[C@@H](CCCCN)C(=O)N[C@@H](CC1CCCCC1)C(=O)N[C@@H](CS)C(=O)O)C(c1ccccc1)c1ccccc1 (Ac-DE[Dip]K[Cha]C-OH),1240 nM,–,8%
CC(=O)N[C@@H](CCC(=O)O)C(=O)N[C@H](C(=O)N[C@@H](CCC(=O)O)C(=O)N[C@@H](CC1CCCCC1)C(=O)N[C@@H](CS)C(=O)O)C(c1ccccc1)c1ccccc1 (Ac-E[Dip]E[Cha]C-OH),330 nM,700 nM,–
CC[C@H](C)[C@H](NC(=O)[C@@H](NC(=O)[C@H](CCC(=O)O)NC(=O)[C@H](CC(=O)O)NC(C)=O)C(c1ccccc1)c1ccccc1)C(=O)N[C@@H](CC1CCCCC1)C(=O)N[C@@H](CS)C(=O)O (Ac-DE[Dip]I[Cha]C-OH),220 nM,30 nM,–
CC[C@H](C)[C@H](NC(C)=O)C(=O)N[C@@H](CC1CCCCC1)C(=O)N[C@@H](CS)C(=O)O (Ac-Ile-[Cha]-Cys-OH),25000 nM,–,–
CSCC[C@H](NC(=O)[C@H](CCC(=O)O)NC(=O)[C@H](CC(=O)O)NC(C)=O)C(=O)N[C@@H](CCC(=O)O)C(=O)N[C@@H](CC1CCCCC1)C(=O)N[C@@H](CS)C(=O)O (Ac-DEME[Cha]C-OH),440 nM,400 nM,–

# From ChEMBL document CHEMBL1133784, “Inhibition of hepatitis C virus NS3 protease activity by product-based peptides is dependent on helicase domain” (Bioorg Med Chem Lett, 2001)
